Experimental data: article PMC12362244, “Fidelity, specialization, and evolution of Paramecium PolX DNA polymerases involved in programmed double-strand break DNA repair” (Nucleic Acids Research, 2025)

Experiments:
[1] = biological target: T1, PolXcΔNter (Paramecium tetraurelia, UniProt A0DCU7); test: gap-filling, FAM-primer urea-PAGE; type: biochemical; details: gap with nick in template strand; 1 nM enzyme, 1 mM dGTP, 5 mM MgCl2, pH 7.5, 27°C
T1 construct: gene GSPATT00015723001; lacks residues 1-266 (BRCT and linker); cleavable N-terminal 14-His tag; E. coli BL21 Star (DE3)
T1 sequence (A0DCU7 267-608): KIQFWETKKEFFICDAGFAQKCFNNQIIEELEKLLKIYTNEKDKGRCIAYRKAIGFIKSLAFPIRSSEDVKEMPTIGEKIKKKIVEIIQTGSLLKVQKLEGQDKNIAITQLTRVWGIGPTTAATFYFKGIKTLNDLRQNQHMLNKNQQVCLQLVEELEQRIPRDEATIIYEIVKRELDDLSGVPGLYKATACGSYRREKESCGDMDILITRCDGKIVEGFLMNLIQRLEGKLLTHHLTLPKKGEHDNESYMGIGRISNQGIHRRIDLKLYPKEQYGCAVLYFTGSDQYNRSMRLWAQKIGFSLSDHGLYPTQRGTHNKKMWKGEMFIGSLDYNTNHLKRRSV

[2] = biological target: T2, HsPolλ (Homo sapiens, UniProt Q9UGP5); test: gap-filling, FAM-primer urea-PAGE; type: biochemical; details: continuous template strand; 50 nM enzyme, 1 mM dGTP, 5 mM MgCl2, pH 7.5, 37°C
T2 construct: gene POLL; wild type; cleavable N-terminal 14-His tag; E. coli
T2 sequence (Q9UGP5 1-575): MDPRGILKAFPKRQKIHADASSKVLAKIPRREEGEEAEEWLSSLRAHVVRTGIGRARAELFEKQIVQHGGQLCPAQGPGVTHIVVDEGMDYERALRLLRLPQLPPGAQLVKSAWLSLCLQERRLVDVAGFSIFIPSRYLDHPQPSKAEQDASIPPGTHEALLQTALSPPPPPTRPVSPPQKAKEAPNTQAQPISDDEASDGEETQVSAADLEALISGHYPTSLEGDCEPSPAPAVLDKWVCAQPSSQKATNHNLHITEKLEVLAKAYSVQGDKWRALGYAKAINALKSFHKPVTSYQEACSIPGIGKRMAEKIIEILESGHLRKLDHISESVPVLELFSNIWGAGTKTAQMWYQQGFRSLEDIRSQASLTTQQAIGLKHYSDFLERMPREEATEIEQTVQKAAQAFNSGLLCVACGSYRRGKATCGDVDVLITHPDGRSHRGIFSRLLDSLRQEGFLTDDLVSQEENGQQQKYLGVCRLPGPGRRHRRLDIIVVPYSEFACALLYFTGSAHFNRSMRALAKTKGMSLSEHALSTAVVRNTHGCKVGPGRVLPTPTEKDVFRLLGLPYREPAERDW

Structure (SMILES): Nc1nc2c(ncn2[C@H]2C[C@H](O)[C@@H](COP(=O)(O)OP(=O)(O)OP(=O)(O)O)O2)c(=O)[nH]1 [dGTP]
- gap-filling, FAM-primer urea-PAGE [1]: PolXaΔNter, PolXbΔNter, and PolXcΔNter displayed the highest apparent activity
- gap-filling, FAM-primer urea-PAGE [2]: display gap-filling activity similar to hPolλ when using a continuous template strand
